Patent publication US9416115B2, “Fused heterocyclic compounds as ion channel modulators” (Gilead Sciences, Inc., priority 2013, dated 2016)

target: hNav1.7 (Homo sapiens, UniProt Q15858); assay: Voltage-dependent inhibition of the Nav1.7 sodium channel; assay type: cell-based; details: voltage-dependent block of peak current
Description: HEK-293 cells stably expressing wild-type (WT) hNav1.7 were obtained from Scottish Biomedical (Glasgow, Scotland, United Kingdom). Cells are maintained with standard tissue culture procedures and stable channel expression is maintained with 500 ug/mL G418 in the culture medium. Unless otherwise noted, all reagents are purchased from Sigma-Aldrich (St Louis, Mo., U.S.A.).
Assays measuring Voltage-Dependent Block (VDB) of Nav1.7 are performed on an automated electrophysiology platform, QPatch 16X or QPatch HT (Sophion Bioscience, Copenhagen, Denmark), using the whole cell patch clamp technique to measure currents through the cell membrane. Series resistance compensation is set to 100% and series resistance and whole-cell compensation are performed automatically. Currents stored in the Sophion Bioscience Oracle database (Sophion Bioscience, Copenhagen, Denmark). Analysis is performed using QPatch Assay software and data are compiled in Excel 2010 (Microsoft, Seattle, Wash., U.S.A.).
The internal (pipette) solution consists of (in mM) 105 CsF, 10 NaF, 20 CsCl, 2 EGTA, 10 HEPES, 10 Dextrose with a pH of 7.35 and osmolarity of 300 mOsmol/kg. The external (bath) solution contains in (mM): 140 NaCl, 4 KCl, 1.8 CaCl2, 1 MgCl2, 10 dextrose, 10 HEPES, with a pH of 7.35 and osmolarity of 310 mOsmol/kg. Experiments are carried out at 23-25° C.
Compound stocks are routinely made by the Gilead Sample Bank in vials to 10 mM in dimethyl sulfoxide (DMSO). In some cases, when compounds are not soluble in DMSO, they are made in 100% ethanol. Stocks are sonicated as necessary. Compounds are diluted in extracellular solution using a MicroLab Nimbus (Hamilton Robotics, Reno, Nev.) to 1 μM in glass vials and transferred to glass well plates before robotic addition to the cells.
Cells are allowed to stabilize for 10 min after establishment of the whole-cell configuration before current is measured. The test compound is applied 3 times at 120 second intervals to allow for equilibration. Currents were leak subtracted using a P/4 procedure, low-pass Bessel filtered at 5 kHz and digitized at 25 kHz. Results are presented as mean percentage inhibition.
Voltage-dependent block of Nav1.7 peak current was measured during a voltage step to 0 mV (20 ms) following a voltage step pre-conditioning steps (−60 mV for 10 sec followed by −120 mV for 10 ms). The holding potential was −120 mV and this voltage protocol induces half maximal inactivation of Nav1.7. The voltage protocol for VDB was performed every 45 seconds in the absence and presence of compound and percentage inhibition was calculated with respect to the compound free condition.

Chain of hNav1.7 (Q15858 whole entry): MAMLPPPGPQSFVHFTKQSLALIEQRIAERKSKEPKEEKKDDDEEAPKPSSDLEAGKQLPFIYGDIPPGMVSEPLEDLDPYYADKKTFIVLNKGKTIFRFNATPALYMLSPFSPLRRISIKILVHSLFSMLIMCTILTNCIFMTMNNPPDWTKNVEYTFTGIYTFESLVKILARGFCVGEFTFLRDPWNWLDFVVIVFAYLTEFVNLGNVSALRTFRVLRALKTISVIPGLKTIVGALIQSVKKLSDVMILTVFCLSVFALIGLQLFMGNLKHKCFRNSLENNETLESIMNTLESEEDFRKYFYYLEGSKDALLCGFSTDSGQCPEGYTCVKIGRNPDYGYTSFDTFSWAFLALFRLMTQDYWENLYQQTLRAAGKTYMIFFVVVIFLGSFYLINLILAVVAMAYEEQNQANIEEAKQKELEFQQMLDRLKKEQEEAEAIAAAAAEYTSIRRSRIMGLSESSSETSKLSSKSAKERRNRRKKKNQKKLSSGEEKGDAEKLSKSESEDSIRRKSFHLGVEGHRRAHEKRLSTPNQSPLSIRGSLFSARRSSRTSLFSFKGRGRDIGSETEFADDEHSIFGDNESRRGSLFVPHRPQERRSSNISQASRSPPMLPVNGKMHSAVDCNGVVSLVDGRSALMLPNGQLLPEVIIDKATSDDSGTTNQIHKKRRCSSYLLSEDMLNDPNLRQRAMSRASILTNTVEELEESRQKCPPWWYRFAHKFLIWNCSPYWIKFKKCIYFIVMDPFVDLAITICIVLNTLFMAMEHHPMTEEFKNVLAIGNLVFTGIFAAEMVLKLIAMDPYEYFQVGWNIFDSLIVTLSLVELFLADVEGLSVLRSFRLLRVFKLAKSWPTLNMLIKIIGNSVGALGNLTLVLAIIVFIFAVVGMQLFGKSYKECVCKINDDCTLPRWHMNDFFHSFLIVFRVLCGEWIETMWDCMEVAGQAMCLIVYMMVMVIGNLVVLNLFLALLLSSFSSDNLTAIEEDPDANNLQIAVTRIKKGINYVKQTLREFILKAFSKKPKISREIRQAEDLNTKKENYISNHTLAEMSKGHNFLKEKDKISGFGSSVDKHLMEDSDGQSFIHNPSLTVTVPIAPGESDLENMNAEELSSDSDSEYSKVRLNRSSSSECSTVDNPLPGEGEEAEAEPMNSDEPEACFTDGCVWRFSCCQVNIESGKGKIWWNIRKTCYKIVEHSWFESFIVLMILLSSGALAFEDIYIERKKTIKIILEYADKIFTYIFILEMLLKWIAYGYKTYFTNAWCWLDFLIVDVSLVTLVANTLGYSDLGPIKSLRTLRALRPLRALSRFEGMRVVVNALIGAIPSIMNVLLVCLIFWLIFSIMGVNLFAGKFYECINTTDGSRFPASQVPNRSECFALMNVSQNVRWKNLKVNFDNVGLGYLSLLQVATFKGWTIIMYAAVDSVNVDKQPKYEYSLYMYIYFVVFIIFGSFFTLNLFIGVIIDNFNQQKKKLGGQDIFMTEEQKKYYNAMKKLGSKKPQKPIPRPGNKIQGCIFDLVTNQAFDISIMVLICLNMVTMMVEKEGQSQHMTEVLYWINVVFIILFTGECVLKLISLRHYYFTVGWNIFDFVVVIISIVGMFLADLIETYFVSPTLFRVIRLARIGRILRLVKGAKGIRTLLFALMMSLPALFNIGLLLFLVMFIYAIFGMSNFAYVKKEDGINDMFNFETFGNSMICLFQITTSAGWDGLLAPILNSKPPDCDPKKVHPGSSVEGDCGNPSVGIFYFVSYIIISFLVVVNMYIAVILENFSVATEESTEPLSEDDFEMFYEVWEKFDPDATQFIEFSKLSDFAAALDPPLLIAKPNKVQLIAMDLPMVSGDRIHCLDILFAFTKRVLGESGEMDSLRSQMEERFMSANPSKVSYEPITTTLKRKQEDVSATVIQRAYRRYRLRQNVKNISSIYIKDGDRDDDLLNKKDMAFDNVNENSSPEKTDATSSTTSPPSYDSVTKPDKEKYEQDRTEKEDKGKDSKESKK

| SMILES | Nav 1.7-VDB 1 uM [percentage inhibition] |
| --- | --- |
| Fc1cc(C(F)(F)F)ccc1-c1ccc2onc(OCc3ncccn3)c2c1 [Example 6, 5-(2-fluoro-4-(trifluoromethyl)phenyl)-3-(pyrimidin-2-ylmethoxy)benzo[d]isoxazole] | 15.6 |
| Cc1nnc(COc2noc3ccc(-c4ccc(OC(F)(F)F)cc4)cc23)o1 [Example 99, 3-((5-methyl-1,3,4-oxadiazol-2-yl)methoxy)-5-(4-(trifluoromethoxy)phenyl)benzo[d]isoxazole] | 59.3 |
| COc1cc(OC(F)(F)F)ccc1-c1ccc2onc(OCc3ncccn3)c2c1 [Example 4, 5-(2-methoxy-4-(trifluoromethoxy)phenyl)-3-(pyrimidin-2-ylmethoxy)benzo[d]isoxazole] | 28.6 |
| FC(F)(F)Oc1cccc(-c2ccc3onc(OCc4ncccn4)c3c2)c1 [Example 10, 3-(pyrimidin-2-ylmethoxy)-5-(3-(trifluoromethoxy)phenyl)benzo[d]isoxazole] | 10.0 |
